Assay results published in patent EP4007561B1, “PREVENTION AND REDUCTION OF CORNIFICATION DISORDERS AND RELATED COSMETIC AGENTS” (Merck Patent GmbH, priority 2019, dated 2021).
Several values for one entry are separate records, joined by “and”; a condition that tells them apart may be missing. Identical values can stand only once.

What was measured:
Type in all cases: cell-based, human
skin explants = assay: Protein oxidation (carbonylation) by differential in-gel electrophoresis proteomics, unidentified spots and overall spot pattern; settings: for Average normalized volume (oxidation level): UV-A + Ectoine 0.2%, UV-A 365 nm, 480J/cm2, 40 min
Protocol: To assess and quantify protein oxidation (carbonylation) by differential in-gel electrophoresis proteomics approach evidencing differentially oxidized protein spots upon UV-A (365 nm) irradiation on skin explants in the presence or absence of ectoine (0,2%) (source Merck KGaA, Darmstadt, Germany).
During the study human explants are irradiated under UVA (LED source; sources and chamber manufactured for custom needs by UWAVE;France, peak at 365nm at a 480J/cm2 dose during 40 min). A solution of N-acetylcysteine (Reference A7250, Sigma-Aldrich) is used as positive control of protection. Just after irradiation, explants are snap-frozen and proteins extracted for analyses.
Protein extraction from explants is performed using a commercial kit (Total Protein Extraction Kit, Merck KGaA) protocol for skin explants. Extracted proteins are quantified by the Bradford method and split into equal amounts for analyses. The samples are analyzed for carbonylated proteins after they are labeled with fluorescent probes functionalized to selectively react with carbonyl groups. The fluorescent labeling of carbonyls is obtained by the reaction with amine-N-oxyl functionalized fluorophore (custom synthetized) and formation of a stable covalent bond.
Thus, the samples are labeled with two different fluorescent dyes characterized by different excitation and emission wavelength peaks: CF®555 (Source :Biotium) is a red fluorescent dye spectrally similar to Cy3® and Alexa Fluor® 555 (λex547nm/λem572nm) and CF®647 (Source: Biotium) CF®647is a far-red fluorescent dye spectrally similar to Cy®5 and Alexa Fluor® 647 (λex639nm/λem668nm). This approach allows to load two distinct labeled samples in the same bi-dimensional electrophoresis gel and to analyze them independently.
Moreover, 50 µg of proteins of each sample are pooled and labeled a third fluorescent probe CF®488 (Source: Biotium) (λex483nm/λem508nm). CF®488 is a green fluorescent dye spectrally similar to Alexa Fluor® 488. CF®488 is and used as Internal Standard (IS) for inter-gel normalization. After specific fluorescent labeling, carbonylated proteins are separated by bi-dimensional electrophoresis and the fluorescence images are obtained for each specifically labeled sample.
The first dimension of protein separation (isoelectric focusing) is performed using gel-strips with nonlinear pH 3 to 11 while the second step of electrophoresis separation is conducted by SDS-PAGE using 4%-20% w/v gradient polyacrylamide gels. The digital acquisition of gel images is performed by using the «Ettan DIGE imager» system (GE Healthcare). Data treatment is performed with the software «Progenesis SameSpots» (Nonlinear Dynamics, UK).
Carbonylated proteins are presented as superposed images of two independent fluorescent signals (in green or red) and the coincident proteins with equivalent intensity result in yellow spots by superposition of the two dye colors used for their labeling (superposition of green and red colors). The carbonylated proteins that are present in a different level in the two samples on gel are visualized as red or green spots depending by the experimental group as independent labeling of each sample.
More than 200 spots are detected per sample, with an increase in number and intensity in the samples of the irradiated group (UV-A). These spots are localized between 37 kDa and 75 kDa. The fluorescence signal of each spot is normalized over the internal standard spot signal for each gel. The alignment of spots from different gels and the analysis of variance of their carbonylation levels in different samples and in different groups are performed by using the software Progenesis Samespots.

Filaggrin = assay: Fluorescence imaging (immunostaining) of protein expression on skin explants ex vivo; settings: ectoine 0.2% w/v, 24 hours prior to UV-A irradiation (365 nm, 480J/cm^2, 40 minutes); Figure 2
Protocol: (§1) To evidence changes at the expression level of a selected pool of proteins on skin explants (ex vivo), treated or not with ectoine 0.2% (source Merck KGaA. Darmstadt, Germany) and exposed or not to UV-A irradiation: At day 0 (D0), the skin explants from a donor (phototype III, ref. EXP001100F022) are kept alive in calcium-free DMEM (Dulbecco's modified Eagle medium), with 10% FCS (Fetal calf serum), at 37°C and humid atmosphere, supplemented with 5% CO2. On day 1 (D1), ectoine 0.2% w/v) is obtained by dilution in H2O. The experimental groups are incubated for 24 hours with the active prior to irradiation.
(§2) On day 2 (D2), a stress induced by irradiation with UV-A (LED source, peak at 365 nm at a 480J/cm^2 during 40 minutes) is applied to the explants.
(§3) Skin explants are previously treated or not with ectoine and irradiated or not with UV-A, cryo-preserved in OCT (an embedding resin (Shandon Cryomatrix; Thermo Scientific, Reference 6769006)), flash-frozen in isopetan/liquid nitrogen and stored at -80 °C.
(§4) Tissue sections of 5 µm are cut by using a cryotome, air-dried at room temperature (RT) for 15 minutes and fixed with a mix of 95% ethanol/5% acetic acid for 5 minutes. Fixed tissues are then saturated with 5% BSA (bovine serum albumin) in PBS (Phosphate Buffered Saline; 1X, pH 7.4) at RT. […]

LAMP2A = assay: as above; settings: ectoine 0.2% w/v; basal conditions (without UV-A); Figure 3
Protocol: as §1, §2, §3, §4

Compound: CC1=N[C@H](C(=O)O)CCN1 [Ectoine, (S)-1,4,5,6-tetrahydro-2-methyl-4-pyrimidincarboxylic acid]
- Average normalized volume (oxidation level) (skin explants; Spot 100 (protein not identified), n=4): → 1.129
- Average normalized volume (oxidation level) (skin explants; Spot 203 (protein not identified), n=4): → 1.062
- Average normalized volume (oxidation level) (skin explants; Spot 230 (protein not identified), n=4): → 1.433
- level of oxidation of protein spots in the absence of irradiation (skin explants; basal conditions, no UV-A, spots different from those protected from UV-A stress (except spot 100)): decreases the level of oxidation of ten protein spots
- protein carbonylation after ectoine treatment, spots 100, 230, 203 (skin explants; ectoine 0.2%, UV-A irradiation, n=4): carbonylation is not reduced
- protection of protein spots from UV-A induced oxidation (carbonylation) (skin explants; ectoine 0.2%, of 8 spots increased by UV-A, spots 186, 133, 184, 185, 206, n=4): five spots are detected as protected and 5 proteins exhibit reduced protein carbonylation and prevents protein carbonylation significantly
- Filaggrin expression level (Filaggrin): prevents this decrease of Filaggrin
- LAMP2A expression (LAMP2A): increases LAMP2A expression
